Results taken from paper PMC12226413, “Downregulation of O‐GlcNAcylation enhances etoposide‐induced p53‐mediated apoptosis in HepG2 human liver cancer cells” (FEBS Open Bio, 2025).

How the values were obtained:
[1] = target: T1, Recombinant human OGT protein (O-GlcNAc transferase) (Homo sapiens, UniProt O15294); test: UDP-Glo glycosyltransferase assay (luminescence); type: biochemical; conditions: UDP-GlcNAc and peptide KKKYPGGSTPVSSANMM as substrates; 25 mM Tris pH 7.5, 12.5 mM MgCl2, 0.06 mg/mL BSA, 1 mM DTT; unreliable
T1 construct: recombinant human OGT from R&D Systems
T1 sequence (O15294 2-1046): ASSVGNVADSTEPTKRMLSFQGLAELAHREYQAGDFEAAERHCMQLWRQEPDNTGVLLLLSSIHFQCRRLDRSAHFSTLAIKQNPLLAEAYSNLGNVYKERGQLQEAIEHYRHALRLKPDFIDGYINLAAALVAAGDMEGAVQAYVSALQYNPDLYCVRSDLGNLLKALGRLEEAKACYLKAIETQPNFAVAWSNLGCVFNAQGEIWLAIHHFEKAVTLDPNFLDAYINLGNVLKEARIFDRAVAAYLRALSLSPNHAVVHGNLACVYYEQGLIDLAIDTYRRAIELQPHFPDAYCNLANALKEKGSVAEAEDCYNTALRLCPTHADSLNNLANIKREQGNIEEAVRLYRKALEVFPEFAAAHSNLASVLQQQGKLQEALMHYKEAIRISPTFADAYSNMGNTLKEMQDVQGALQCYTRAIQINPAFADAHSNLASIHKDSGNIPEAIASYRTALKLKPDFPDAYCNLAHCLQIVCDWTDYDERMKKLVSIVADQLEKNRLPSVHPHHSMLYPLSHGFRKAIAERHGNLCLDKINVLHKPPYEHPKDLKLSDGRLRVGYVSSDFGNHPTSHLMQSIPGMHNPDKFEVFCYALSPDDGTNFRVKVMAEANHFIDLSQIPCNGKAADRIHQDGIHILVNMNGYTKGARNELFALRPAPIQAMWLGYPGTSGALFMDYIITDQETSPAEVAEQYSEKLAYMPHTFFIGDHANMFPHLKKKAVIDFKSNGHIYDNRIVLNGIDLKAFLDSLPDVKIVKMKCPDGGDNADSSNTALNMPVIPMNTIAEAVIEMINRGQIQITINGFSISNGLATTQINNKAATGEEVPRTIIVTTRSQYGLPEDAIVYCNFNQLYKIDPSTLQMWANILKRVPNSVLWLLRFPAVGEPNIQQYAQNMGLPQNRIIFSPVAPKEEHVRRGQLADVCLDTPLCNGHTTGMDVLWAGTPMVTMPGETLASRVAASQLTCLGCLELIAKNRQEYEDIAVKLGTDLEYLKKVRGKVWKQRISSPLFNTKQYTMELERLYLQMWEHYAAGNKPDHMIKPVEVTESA

[2] = target: T1, Recombinant human OGT protein (O-GlcNAc transferase); test: UDP-Glo glycosyltransferase assay (luminescence); type: biochemical

% inhibition at 400 μM [1] | IC50 [2] | Structure (SMILES)
~ 47.3% |  | COc1cc([C@@H]2c3cc4c(cc3[C@@H](O[C@@H]3O[C@@H]5CO[C@@H](C)O[C@H]5[C@H](O)[C@H]3O)[C@H]3COC(=O)[C@H]23)OCO4)cc(OC)c1O [Etoposide]
 | 4.47 µM | COc1ccccc1[C@@H](NS(=O)(=O)c1ccc2[nH]c(=O)ccc2c1)C(=O)N(Cc1ccco1)Cc1cccs1 [OSMI-1]
